Here are results for seven compounds from ChEMBL document CHEMBL1201862, “PubChem BioAssay data set” (2004).

Assay [1] concerns the target T1, High affinity choline transporter 1 (Homo sapiens, UniProt Q9GZV3).
T1 sequence (Q9GZV3 whole entry): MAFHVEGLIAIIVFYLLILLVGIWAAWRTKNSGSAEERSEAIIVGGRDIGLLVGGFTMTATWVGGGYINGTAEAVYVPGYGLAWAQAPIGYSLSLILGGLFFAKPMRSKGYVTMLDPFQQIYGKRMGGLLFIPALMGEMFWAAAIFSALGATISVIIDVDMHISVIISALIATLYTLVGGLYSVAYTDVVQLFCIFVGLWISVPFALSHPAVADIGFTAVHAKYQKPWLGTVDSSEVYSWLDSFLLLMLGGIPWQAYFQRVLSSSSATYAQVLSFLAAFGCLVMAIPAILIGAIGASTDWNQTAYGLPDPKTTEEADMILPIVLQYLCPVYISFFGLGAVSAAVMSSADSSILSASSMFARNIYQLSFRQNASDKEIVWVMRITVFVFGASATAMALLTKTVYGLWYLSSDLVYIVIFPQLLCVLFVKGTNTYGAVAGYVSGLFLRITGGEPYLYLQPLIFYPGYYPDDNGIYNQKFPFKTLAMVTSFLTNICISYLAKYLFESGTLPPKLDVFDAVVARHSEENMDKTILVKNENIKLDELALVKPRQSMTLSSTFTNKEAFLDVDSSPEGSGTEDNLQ
Nature of the assay: CHT inhibitors, dose response, cell-based, 5-point CRC, membrane potential dye (AID 504840). The class given is functional.

Assay [2] has as its target T1, High affinity choline transporter 1. Description: CHT inhibitors, dose response, cell-based, 10-point CRC, membrane potential dye (AID 588401).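 Also: membrane potential dye fluorescence of choline-evoked depolarization via CHT.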 The class given is functional.
The target of assay [3] is Calcium/calmodulin-dependent protein kinase type II subunit gamma (Homo sapiens, UniProt Q13555). The class given is functional.
In assay [4] the target is Calcium/calmodulin-dependent protein kinase type II subunit delta (Homo sapiens, UniProt Q13557). The class given is functional.
For assay [5], the target named is Calcium/calmodulin-dependent protein kinase type II subunit beta (Homo sapiens, UniProt Q13554). Type of assay: functional.
Assay [6] deals with Tyrosine-protein kinase FRK (Homo sapiens, UniProt P42685). Type of assay: functional.
Assay [7] concerns the target T2, Melanin-concentrating hormone receptor 1 (Homo sapiens, UniProt Q99705). Description: Late-stage fluorescence-based counterscreen for antagonists of the G-protein coupled receptor 7 (GPR7): cell-based dose response assay to identify antagonists of the melanin-concentrating hormone receptor 1 (MCHR1) Set 5. Type of assay: functional.
Assay [8] addresses T2, Melanin-concentrating hormone receptor 1. Description: Late-stage fluorescence-based counterscreen for antagonists of the G-protein coupled receptor 7 (GPR7): cell-based dose response assay to identify antagonists of the melanin-concentrating hormone receptor 1 (MCHR1) Set 6. Type of assay: functional.
In assay [9] the target is Neuropeptides B/W receptor type 1 (Homo sapiens, UniProt P48145). Description: GPR7 antagonist potency, late-stage follow-up, cell-based, fluorescence, dose response, set 6 (AID 588583). Type of assay: functional.
For assay [10], the target named is Dual specificity protein kinase CLK2 (Homo sapiens, UniProt P49760). Type of assay: functional.
Assay [11] has as its target ALK tyrosine kinase receptor (Homo sapiens, UniProt Q9UM73). The class given is functional.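 Also: ALK tested as one member of a kinase panel screen.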
The target of assay [12] is Serine/threonine-protein kinase D3 (Homo sapiens, UniProt O94806). The class given is functional.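 Also: determined within a kinase panel screen, with PRKCN as the panel member.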
Assay [13] deals with Tyrosine-protein kinase Lck (Homo sapiens, UniProt P06239). Type of assay: functional.
In assay [14] the target is Death-associated protein kinase 3 (Homo sapiens, UniProt O43293). The class given is functional.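 Also: measured as one member of a kinome-wide profiling panel.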
Death-associated protein kinase 3, sequence (O43293 whole entry): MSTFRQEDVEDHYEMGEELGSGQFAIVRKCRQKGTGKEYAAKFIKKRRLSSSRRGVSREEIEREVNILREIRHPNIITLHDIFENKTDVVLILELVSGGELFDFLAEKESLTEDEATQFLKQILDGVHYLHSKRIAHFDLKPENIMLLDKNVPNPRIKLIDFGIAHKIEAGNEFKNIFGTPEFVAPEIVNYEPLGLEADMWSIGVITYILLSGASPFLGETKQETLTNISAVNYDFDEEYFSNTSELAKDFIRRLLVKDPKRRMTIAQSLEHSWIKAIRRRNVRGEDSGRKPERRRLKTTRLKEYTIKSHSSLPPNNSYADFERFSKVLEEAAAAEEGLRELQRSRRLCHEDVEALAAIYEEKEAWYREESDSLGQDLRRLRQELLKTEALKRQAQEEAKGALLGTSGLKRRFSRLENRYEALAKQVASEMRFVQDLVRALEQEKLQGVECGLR
For another assay, the target named is Activin receptor type-1 (Homo sapiens, UniProt Q04771). Nature of the assay: Navigating the Kinome. Panel member name: ACVR1. The class given is functional.
For assay [15], the target named is Mitogen-activated protein kinase 8 (Homo sapiens, UniProt P45983). The class given is functional.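 Also: value comes from one member of a kinome-wide kinase profiling panel.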
For assay [16], the target named is Serine/threonine-protein kinase pim-1 (Homo sapiens, UniProt P11309). Type of assay: functional.
Serine/threonine-protein kinase pim-1, sequence (P11309 whole entry): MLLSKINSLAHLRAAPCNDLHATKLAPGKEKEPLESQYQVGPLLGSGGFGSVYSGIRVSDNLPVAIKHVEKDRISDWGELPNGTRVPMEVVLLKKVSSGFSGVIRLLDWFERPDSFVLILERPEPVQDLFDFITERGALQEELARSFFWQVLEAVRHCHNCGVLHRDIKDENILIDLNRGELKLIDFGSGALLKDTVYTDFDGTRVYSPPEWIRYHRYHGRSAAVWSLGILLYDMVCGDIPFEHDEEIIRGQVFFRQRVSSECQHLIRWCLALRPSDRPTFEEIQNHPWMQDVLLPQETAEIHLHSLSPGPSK
Another assay has as its target Aurora kinase A (Homo sapiens, UniProt O14965). Type of assay: functional.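 Also: value from the Navigating the Kinome kinase panel profiling, panel entry STK6.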
The target of assay [17] is Tyrosine-protein kinase BTK (Homo sapiens, UniProt Q06187). Type of assay: functional.
Assay [18] concerns the target Serine/threonine-protein kinase PAK 4 (Homo sapiens, UniProt O96013). Type of assay: functional.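 Also: value obtained within a kinome profiling panel in which PAK4 was one of the panel members.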
The target in assay [19] is Fibroblast growth factor receptor 1 (Homo sapiens, UniProt P11362). Type of assay: functional.
Assay [20] has as its target Casein kinase I isoform alpha (Homo sapiens, UniProt P48729). The class given is functional.
Assay [21] deals with Tyrosine-protein kinase JAK3 (Homo sapiens, UniProt P52333). The class given is functional.
The target of assay [22] is Mitogen-activated protein kinase 9 (Homo sapiens, UniProt P45984). Type of assay: functional.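 Also: value from a kinome panel profiling assay, MAPK9 panel entry.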
The target in a further assay is LIM domain kinase 1 (Homo sapiens, UniProt P53667). Description: Navigating the Kinome. Panel member name: LIMK1. The class given is functional.
Assay [23] deals with Serine/threonine-protein kinase TAO1 (Homo sapiens, UniProt Q7L7X3). Type of assay: functional.
For assay [24], the target named is Glycogen synthase kinase-3 alpha (Homo sapiens, UniProt P49840). The class given is functional.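 Also: GSK3A result taken from a broad kinome-wide kinase panel.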
The next assay concerns the target Activated CDC42 kinase 1 (Homo sapiens, UniProt Q07912). Nature of the assay: Navigating the Kinome. Panel member name: ACK1. Type of assay: functional.
For assay [25], the target named is Serine/threonine-protein kinase Chk1 (Homo sapiens, UniProt O14757). Type of assay: functional.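 Also: measured as one member of a kinome-wide kinase profiling panel.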
Assay [26] concerns the target G protein-coupled receptor kinase 5 (Homo sapiens, UniProt P34947). Description: Navigating the Kinome. Panel member name: GPRK5. The class given is functional.
Assay [27] has as its target Cyclin-dependent kinase 5 (Homo sapiens, UniProt Q00535). The class given is functional.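 Also: CDK5 measured as one member of a kinase profiling panel.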
The next assay addresses Focal adhesion kinase 1 (Homo sapiens, UniProt Q05397). The class given is functional.
In another assay the target is Aurora kinase B (Homo sapiens, UniProt Q96GD4). Type of assay: functional.
Aurora kinase B, sequence (Q96GD4 whole entry): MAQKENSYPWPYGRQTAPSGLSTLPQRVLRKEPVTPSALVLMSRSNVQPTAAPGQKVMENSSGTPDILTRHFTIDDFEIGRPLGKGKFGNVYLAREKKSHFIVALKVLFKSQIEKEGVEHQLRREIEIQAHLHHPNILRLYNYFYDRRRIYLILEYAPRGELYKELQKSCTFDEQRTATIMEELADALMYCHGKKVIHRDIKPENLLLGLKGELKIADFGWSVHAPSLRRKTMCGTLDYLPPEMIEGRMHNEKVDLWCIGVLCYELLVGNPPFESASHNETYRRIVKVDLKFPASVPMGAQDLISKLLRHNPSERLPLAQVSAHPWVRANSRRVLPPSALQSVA
The target of assay [28] is Tyrosine-protein kinase Fyn (Homo sapiens, UniProt P06241). Type of assay: functional.
Tyrosine-protein kinase Fyn, sequence (P06241 whole entry): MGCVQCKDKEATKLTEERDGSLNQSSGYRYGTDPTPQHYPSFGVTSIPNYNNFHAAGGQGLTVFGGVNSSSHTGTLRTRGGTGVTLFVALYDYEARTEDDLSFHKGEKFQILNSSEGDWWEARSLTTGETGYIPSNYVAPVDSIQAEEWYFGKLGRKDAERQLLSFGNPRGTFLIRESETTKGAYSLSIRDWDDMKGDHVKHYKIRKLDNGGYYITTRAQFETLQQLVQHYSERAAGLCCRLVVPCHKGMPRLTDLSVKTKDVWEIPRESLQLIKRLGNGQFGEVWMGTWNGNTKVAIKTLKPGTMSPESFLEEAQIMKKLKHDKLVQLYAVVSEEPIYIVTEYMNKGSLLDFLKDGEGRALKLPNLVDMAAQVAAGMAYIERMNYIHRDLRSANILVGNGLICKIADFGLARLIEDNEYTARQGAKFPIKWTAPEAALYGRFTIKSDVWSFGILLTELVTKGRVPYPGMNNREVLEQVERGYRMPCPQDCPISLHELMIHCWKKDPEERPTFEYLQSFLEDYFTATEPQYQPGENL
The target in assay [29] is Serine/threonine-protein kinase Nek2 (Homo sapiens, UniProt P51955). Type of assay: functional.
In assay [30] the target is Cyclin-dependent kinase 8 (Homo sapiens, UniProt P49336). Nature of the assay: Navigating the Kinome. Panel member name: CDK8. The class given is functional.
For assay [31], the target named is Cyclin-dependent kinase 7 (Homo sapiens, UniProt P50613). Type of assay: functional.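 Also: value comes from a kinome-wide kinase profiling panel in which CDK7 is one member.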
Assay [32] addresses Vascular endothelial growth factor receptor 1 (Homo sapiens, UniProt P17948). Type of assay: functional.
Assay [33] deals with BDNF/NT-3 growth factors receptor (Homo sapiens, UniProt Q16620). The class given is functional.
The target in assay [34] is Dual specificity protein kinase CLK4 (Homo sapiens, UniProt Q9HAZ1). The class given is functional.
Dual specificity protein kinase CLK4, sequence (Q9HAZ1 whole entry): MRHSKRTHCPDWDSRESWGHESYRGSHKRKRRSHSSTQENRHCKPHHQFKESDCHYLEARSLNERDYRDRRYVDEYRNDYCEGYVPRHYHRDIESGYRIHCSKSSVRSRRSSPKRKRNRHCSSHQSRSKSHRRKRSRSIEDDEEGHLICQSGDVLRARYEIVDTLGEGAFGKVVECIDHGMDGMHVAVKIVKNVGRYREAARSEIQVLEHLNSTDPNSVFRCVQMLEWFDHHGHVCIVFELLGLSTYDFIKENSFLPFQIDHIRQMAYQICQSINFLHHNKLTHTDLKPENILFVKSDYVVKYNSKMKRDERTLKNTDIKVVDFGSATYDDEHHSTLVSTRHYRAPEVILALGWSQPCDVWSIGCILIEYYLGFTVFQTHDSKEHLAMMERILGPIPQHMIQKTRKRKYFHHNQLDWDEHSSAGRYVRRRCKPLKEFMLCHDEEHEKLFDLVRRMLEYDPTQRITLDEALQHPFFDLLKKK
Assay [35] deals with Mitogen-activated protein kinase kinase kinase kinase 4 (Homo sapiens, UniProt O95819). The class given is functional.
Mitogen-activated protein kinase kinase kinase kinase 4, sequence (O95819 whole entry): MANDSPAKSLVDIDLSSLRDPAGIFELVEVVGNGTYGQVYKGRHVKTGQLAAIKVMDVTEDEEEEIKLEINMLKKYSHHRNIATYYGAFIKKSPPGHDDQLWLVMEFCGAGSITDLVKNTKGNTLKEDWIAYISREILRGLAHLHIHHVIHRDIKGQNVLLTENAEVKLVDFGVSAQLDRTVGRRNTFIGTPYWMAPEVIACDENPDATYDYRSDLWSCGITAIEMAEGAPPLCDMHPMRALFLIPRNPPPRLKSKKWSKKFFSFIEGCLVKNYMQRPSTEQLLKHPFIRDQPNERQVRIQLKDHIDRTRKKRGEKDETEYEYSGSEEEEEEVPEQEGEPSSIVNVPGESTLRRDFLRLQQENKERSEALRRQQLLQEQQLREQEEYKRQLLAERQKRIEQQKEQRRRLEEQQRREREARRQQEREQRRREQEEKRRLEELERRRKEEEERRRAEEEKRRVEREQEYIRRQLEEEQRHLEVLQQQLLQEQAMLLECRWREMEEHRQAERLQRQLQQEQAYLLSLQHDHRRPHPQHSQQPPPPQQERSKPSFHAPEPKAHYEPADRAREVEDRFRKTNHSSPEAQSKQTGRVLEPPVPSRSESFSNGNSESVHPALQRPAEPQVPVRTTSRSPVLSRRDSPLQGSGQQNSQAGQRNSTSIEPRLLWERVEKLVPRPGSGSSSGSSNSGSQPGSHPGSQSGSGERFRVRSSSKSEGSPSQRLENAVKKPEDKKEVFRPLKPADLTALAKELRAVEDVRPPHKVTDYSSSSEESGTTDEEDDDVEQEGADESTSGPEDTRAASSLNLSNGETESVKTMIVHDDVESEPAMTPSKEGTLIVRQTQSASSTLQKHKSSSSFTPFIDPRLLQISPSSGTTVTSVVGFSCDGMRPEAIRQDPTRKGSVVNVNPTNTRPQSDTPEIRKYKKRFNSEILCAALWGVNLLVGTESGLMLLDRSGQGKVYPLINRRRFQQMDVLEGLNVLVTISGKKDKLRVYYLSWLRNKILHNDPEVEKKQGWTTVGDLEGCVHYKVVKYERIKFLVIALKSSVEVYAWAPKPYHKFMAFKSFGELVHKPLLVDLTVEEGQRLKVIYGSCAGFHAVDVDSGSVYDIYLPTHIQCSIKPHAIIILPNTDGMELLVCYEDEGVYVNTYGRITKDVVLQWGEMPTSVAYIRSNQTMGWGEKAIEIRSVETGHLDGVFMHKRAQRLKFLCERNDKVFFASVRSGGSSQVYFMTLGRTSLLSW
The target in assay [36] is Macrophage-stimulating protein receptor (Homo sapiens, UniProt Q04912). Nature of the assay: Navigating the Kinome. Panel member name: MST1R. The class given is functional.
In assay [37] the target is Dual specificity mitogen-activated protein kinase kinase 2 (Homo sapiens, UniProt P36507). Description: Navigating the Kinome. Panel member name: MAP2K2. The class given is functional.
Assay [38] concerns the target Dual specificity tyrosine-phosphorylation-regulated kinase 1A (Homo sapiens, UniProt Q13627). The class given is functional.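 Also: measured against DYRK1A as one member of a broad kinome profiling panel.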
Assay [39] has as its target Calcium/calmodulin-dependent protein kinase type II subunit alpha (Homo sapiens, UniProt Q9UQM7). Nature of the assay: Navigating the Kinome. Panel member name: CAMK2A. Type of assay: functional.
Assay [40] concerns the target Mitogen-activated protein kinase 14 (Homo sapiens, UniProt Q16539). Type of assay: functional.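 Also: part of a kinome-wide panel, MAPK14 entry.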
For assay [41], the target named is Cell division cycle 7-related protein kinase (Homo sapiens, UniProt O00311). Type of assay: functional.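 Also: value obtained from a kinome-wide kinase panel.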
Assay [42] has as its target Homeodomain-interacting protein kinase 2 (Homo sapiens, UniProt Q9H2X6). The class given is functional.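 Also: measured within a kinome-wide kinase profiling panel, HIPK2 being one panel member.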
Assay [43] concerns the target MAP kinase-interacting serine/threonine-protein kinase 2 (Homo sapiens, UniProt Q9HBH9). The class given is functional.
Assay [44] concerns the target Interleukin-1 receptor-associated kinase 4 (Homo sapiens, UniProt Q9NWZ3). The class given is functional.
Assay [45] addresses Glycogen synthase kinase-3 beta (Homo sapiens, UniProt P49841). The class given is functional.
Assay [46] concerns the target cAMP-dependent protein kinase catalytic subunit alpha (Homo sapiens, UniProt P17612). The class given is functional.
The nature of assay [47]: microbe, parasite or virus in culture. The note with it: Mycobacterium tuberculosis. The class given is functional.
Assay [48] concerns the target Heat shock protein HSP 90-alpha (Homo sapiens, UniProt P07900). The class given is functional, organism-based.
A short description of assay [49]: A Cell Based Secondary Assay to Explore Cytotoxicity in THP-1 Cells of Compounds that Modulate Mycobacterium tuberculosis in Media Containing Glycerol versus Media without Glycerol (2). Type of assay: functional.
Assay [50] in a line: Vero cell cytotoxicity, cytotoxicity control for M. tuberculosis inhibitor project, purified and synthesized samples, set 3 (AID 504684). As to conditions: […]. Type of assay: functional.
A short description of assay [51]: A Cell Based Secondary Assay to Explore Cytotoxicity in HepG2 Cells of Compounds that Modulate Mycobacterium tuberculosis in Media Containing Glycerol versus Media without Glycerol (2). The class given is functional.

The source made the active and inactive calls.

T2 sequence (Q99705 whole entry): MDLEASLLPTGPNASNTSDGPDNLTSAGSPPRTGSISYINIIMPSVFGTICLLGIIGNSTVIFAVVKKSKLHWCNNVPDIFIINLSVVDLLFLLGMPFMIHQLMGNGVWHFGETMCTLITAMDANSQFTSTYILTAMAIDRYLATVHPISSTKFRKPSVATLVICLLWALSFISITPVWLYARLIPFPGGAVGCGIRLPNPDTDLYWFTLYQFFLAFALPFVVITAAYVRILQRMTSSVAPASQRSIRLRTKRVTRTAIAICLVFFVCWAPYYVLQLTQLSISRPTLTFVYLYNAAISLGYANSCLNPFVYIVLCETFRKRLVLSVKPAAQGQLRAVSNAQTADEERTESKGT
Glycogen synthase kinase-3 beta, sequence (P49841 whole entry): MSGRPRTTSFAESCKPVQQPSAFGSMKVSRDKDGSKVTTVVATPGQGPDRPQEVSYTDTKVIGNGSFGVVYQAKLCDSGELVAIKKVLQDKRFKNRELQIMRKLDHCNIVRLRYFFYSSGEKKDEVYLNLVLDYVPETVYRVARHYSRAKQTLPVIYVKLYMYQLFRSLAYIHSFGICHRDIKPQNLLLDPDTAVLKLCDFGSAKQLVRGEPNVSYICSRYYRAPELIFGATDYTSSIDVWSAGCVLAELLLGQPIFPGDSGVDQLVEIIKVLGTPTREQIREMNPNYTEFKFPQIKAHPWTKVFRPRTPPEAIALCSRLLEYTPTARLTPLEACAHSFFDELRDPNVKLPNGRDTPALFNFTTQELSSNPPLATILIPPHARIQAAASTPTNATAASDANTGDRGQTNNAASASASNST
Serine/threonine-protein kinase PAK 4, sequence (O96013 whole entry): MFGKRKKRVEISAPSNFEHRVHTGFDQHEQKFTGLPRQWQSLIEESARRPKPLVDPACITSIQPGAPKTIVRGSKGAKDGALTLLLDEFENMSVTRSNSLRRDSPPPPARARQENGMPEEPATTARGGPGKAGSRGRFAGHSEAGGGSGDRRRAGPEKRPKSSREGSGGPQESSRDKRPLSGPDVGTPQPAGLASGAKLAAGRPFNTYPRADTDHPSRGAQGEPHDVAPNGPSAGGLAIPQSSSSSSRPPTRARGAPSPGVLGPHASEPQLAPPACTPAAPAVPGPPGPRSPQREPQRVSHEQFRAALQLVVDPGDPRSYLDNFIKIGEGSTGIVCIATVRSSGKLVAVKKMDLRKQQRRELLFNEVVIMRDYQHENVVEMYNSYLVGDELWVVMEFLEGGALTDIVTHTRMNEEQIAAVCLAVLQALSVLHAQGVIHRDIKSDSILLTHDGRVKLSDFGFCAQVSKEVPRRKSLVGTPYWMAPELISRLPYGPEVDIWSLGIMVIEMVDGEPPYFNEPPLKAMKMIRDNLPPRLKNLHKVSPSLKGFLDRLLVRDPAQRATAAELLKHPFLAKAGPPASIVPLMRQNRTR

As for `CCCCN(CCCC)CCCNC(=O)C12CN(Cc3ccccc3)CC1C(c1cccc([N+](=O)[O-])c1)=NO2` (stereo not given), the IC50 is 2.46 µM (active) in [1] and 1.19 µM (active) in assay [2].
As to `CCCC(=O)c1ccc(NCc2c[nH]nc2-c2ccc(C(F)(F)F)cc2)cc1`, the Ki in assay [3] was 3.98 µM (active); in assay [4] it was 3.98 µM (active); in assay [5] it was 1.26 µM (active); in [6], 2 µM (active).
As for `COc1ccc(Oc2c(Cl)cnn(C3c4ccccc4CCc4ccccc43)c2=O)cc1`, in assay [7], the IC50 was > 20 µM (inactive).
With `N#CC(c1ccc(Cl)cc1)c1c(Cl)cnn(Cc2cccc3ccccc23)c1=O` (stereo not given), the IC50 in [8] and in [9] was 0.83 µM (active) in each case.
As to `Nc1ccc2c(C(=O)O)n(-c3ccccc3)nc2c1`, the Ki is > 3.98 µM (inactive) in assay [10]; > 6.31 µM (inactive) in assay [11]; > 3.98 µM (inactive) in assay [12]; > 6.31 µM (inactive) in [13]; > 5.01 µM (inactive) in assay [14]; > 3.98 µM (inactive) on Activin receptor type-1. Besides, the Ki is > 5.01 µM (inactive) in assay [15]; > 6.31 µM (inactive) in [16]; 1.26 µM (active) at Aurora kinase A; > 6.31 µM (inactive) in [17]; > 5.01 µM (inactive) in assay [18]; > 3.98 µM (inactive) in assay [19]. For the same compound, the Ki in assay [20] was 2.51 µM (active); in assay [21], > 5.01 µM (inactive); in [22] it was > 3.98 µM (inactive); at LIM domain kinase 1, 0.794 µM (active); in assay [23], > 6.31 µM (inactive); in assay [24], > 3.98 µM (inactive). Also, the Ki at Activated CDC42 kinase 1 is > 3.98 µM (inactive); in [25] it was 0.398 µM (active); in assay [26] it was > 3.98 µM (inactive); in assay [27], 2.51 µM (active); on Focal adhesion kinase 1, > 6.31 µM (inactive); at Aurora kinase B it was > 3.98 µM (inactive). Also, the Ki in assay [28] is > 6.31 µM (inactive); in assay [29], 2 µM (active); in assay [30] it was 3.16 µM (active); in assay [31] it was > 3.98 µM (inactive); in assay [32], > 3.98 µM (inactive); in [33], > 3.98 µM (inactive). In addition, the Ki was 0.501 µM (active) in assay [34]; > 5.01 µM (inactive) in [35]; > 3.98 µM (inactive) in assay [36]; > 3.98 µM (inactive) in assay [37]; 1 µM (active) in [38]; > 3.98 µM (inactive) in [39]. Besides, in assay [40], the Ki was > 3.98 µM (inactive).
For `O=c1cc(-c2ccncc2)nc(NCc2cc(F)cc(F)c2)[nH]1`, the Ki in assay [16] is 6.31 µM (active); in [41], 0.00631 µM (active); in [42] it was 0.631 µM (active); in assay [43] it was 0.398 µM (active); in [44], 2 µM (active); in [45], 0.2 µM (active). Further, the results for the Ki in assay [46], in assay [34] and in assay [35] were 6.31 µM (active), 0.0126 µM (active) and 0.0631 µM (active), respectively.
Regarding `CCC(C)Nc1ccc(NC(C)CC)cc1` (stereo not given), the CC50 is 15.9 µM (active) in [47], 3.8 µM (active) in [49], 11.2 µM (active) in [50] and 6.68 µM (active) in assay [51]. Besides, in [48], the AC50 is 4.52 µM (active).
